# In ChEMBL document CHEMBL3045545, “Control of chickpea blight disease caused by Didymella rabiei by mixing resistance inducer and contact fungicide” (2011):
# Calls of active or inactive are those of the source. The rule behind the calls is not given here.
# Experiments:
# Ascochyta rabiei [1] = test: Antifungal activity against Didymella rabiei inoculated in chickpea plant assessed as reduction in chickpea blight disease at 100 ppm compound single spray 24 hr before inoculation by green house experiment; assay type: functional
# Ascochyta rabiei [2] = test: Antifungal activity against Didymella rabiei isolate ARL1 inoculated in chickpea seedlings assessed as reduction in chickpea blight disease at 100 ppm compound treated 24 hr prior seedlings by green house experiment; assay type: functional, organism-based
# Ascochyta rabiei [3] = test: Antifungal activity against Didymella rabiei in chickpea plant assessed as dry grain yield at 50 ppm compound three sprays 15 intervals (Control = 0.268 t/ha); assay type: functional
# Ascochyta rabiei [4] = test: Antifungal activity against Didymella rabiei in chickpea plant assessed as dry grain yield at 50 ppm compound two sprays 15 intervals (Control = 0.268 t/ha); assay type: functional
# Ascochyta rabiei [5] = test: Antifungal activity against Didymella rabiei in chickpea plant assessed as dry grain yield at 50 ppm compound single spray 15 intervals (Control = 0.268 t/ha); assay type: functional
# Ascochyta rabiei [6] = test: Antifungal activity against Didymella rabiei in chickpea plant assessed as dry grain yield at 50 ppm compound treated by seeds soaking for 24 hr (Control = 0.268 t/ha); assay type: functional
# Ascochyta rabiei [7] = test: Antifungal activity against Didymella rabiei in chickpea plant assessed as chickpea blight disease severity at 50 ppm compound three sprays 15 intervals (Control = 45.8%); assay type: functional
# Ascochyta rabiei [8] = test: Antifungal activity against Didymella rabiei in chickpea plant assessed as chickpea blight disease severity at 50 ppm compound two sprays 15 intervals (Control = 45.8%); assay type: functional
# Ascochyta rabiei [9] = test: Antifungal activity against Didymella rabiei in chickpea plant assessed as chickpea blight disease severity at 50 ppm compound single spray 15 intervals (Control = 45.8%); assay type: functional
# Ascochyta rabiei [10] = test: Antifungal activity against Didymella rabiei in chickpea plant assessed as chickpea blight disease severity at 50 ppm compound treated by seeds soaking for 24 hr (Control = 45.8%); assay type: functional
# Ascochyta rabiei [11] = test: Antifungal activity against Didymella rabiei inoculated in chickpea plant assessed as reduction in chickpea blight disease at 100 ppm compound single spray 96 or 120 hr before inoculation by green house experiment; assay type: functional, organism-based
# Ascochyta rabiei [12] = test: Antifungal activity against Didymella rabiei inoculated in chickpea plant assessed as reduction in chickpea blight disease at 100 ppm compound single spray 24 to 72 hr before inoculation by green house experiment; assay type: functional, organism-based
smiles,measurement,setting,value
CSC(=O)c1cccc2nnsc12 [ACIBENZOLAR-S-METHYL],inhibition at 100 ppm,Ascochyta rabiei [1],72.4%
same,inhibition,Ascochyta rabiei [2],Active
same,Crop_yield,Ascochyta rabiei [3],0.922 tons/ha
same,Crop_yield,Ascochyta rabiei [4],1.066 tons/ha
same,Crop_yield,Ascochyta rabiei [5],0.52 tons/ha
same,Crop_yield,Ascochyta rabiei [6],0.456 tons/ha
same,Activity,Ascochyta rabiei [7],4.2%
same,Activity,Ascochyta rabiei [8],7.5%
same,Activity,Ascochyta rabiei [9],17.5%
same,Activity,Ascochyta rabiei [10],22.5%
same,inhibition,Ascochyta rabiei [11],inactive
same,inhibition,Ascochyta rabiei [12],Active
